Assay results from US9422238B2, “ICMT inhibitors” (National University of Singapore, priority 2012, dated 2016).
Values after ≈ are worked out from the molar mass of the structure shown. Where two headings read alike, the source gives them in different places.

Columns and labels:
[1] = physchem
Description: The turbid solution was delivered to the filter plate, agitated for a specific time period and then filtered. The concentration of dissolved compound in the filtrate was determined by uv spectroscopy and referred to pre-constructed calibration curves for solubility determination.
(§1) Determination of aqueous solubility was carried out on Multiscreen® Solubility filter plates (Millipore-MSSLBPC10) from Millipore Corporation (MA, USA). The protocol (PC2445EN00, Millipore Corporation) was followed. Briefly, various concentrations of the test compound were prepared in Universal buffer (pH 7.4)/acetonitrile/DMSO. The UV absorbances of these solutions were obtained at a pre-determined wavelength and used to construct a calibration curve for the test compound. Next, a stock solution of the test compound in DMSO was prepared at a known concentration, diluted with Universal buffer (pH 7.4), dispensed into wells in the Multiscreen Solubility filter plate, and agitated for a period of time. The suspension is then filtered, the filtrate collected and diluted with acetonitrile to give the same solvent composition used to prepare the calibration solutions. The absorbance of the diluted filtrate was then read at the predetermined wavelength and the concentration of the filtrate (taken here to be equivalent to the solubility of the test compound) was determined from the calibration curve.
as §1, with “24 hours at room temperature (25 deg C.). […]” for “a period of time.”, “was” for “is then”, “was” for “was then”, “(equivalent” for “(taken here to be equivalent”, “curve. […] LCMS determinations were made on an Agilent 1200 Series HPLC linked to a AB Sciex Instruments 3200 Q TRAP LC/MS/MS. Separations were carried out on a Phenomenex Luna column [3u, C18(2), 100A, 5×4.6 mm]. […] Quantification was based on the ratio of peak areas of the daughter ion and the mother ion (M+H), normalized against the same ratio obtained for the internal standard. The solubility determinations were carried out in triplicates or more from two different stock solutions.” for “curve.”

[2] = target: T1, Isoprenylcysteine carboxyl methyltransferase (Icmt) (Homo sapiens, UniProt O60725); test: Icmt inhibition, scintillation proximity assay with BFC and [3H]SAM; assay type: biochemical
T1 construct: made in house; host or cells: Sf9 (Spodoptera frugiperda) insect cells; membrane preparation provided by Prof PJ Casey (Duke University / Duke-NUS)
T1 sequence (O60725 whole entry, species assumed): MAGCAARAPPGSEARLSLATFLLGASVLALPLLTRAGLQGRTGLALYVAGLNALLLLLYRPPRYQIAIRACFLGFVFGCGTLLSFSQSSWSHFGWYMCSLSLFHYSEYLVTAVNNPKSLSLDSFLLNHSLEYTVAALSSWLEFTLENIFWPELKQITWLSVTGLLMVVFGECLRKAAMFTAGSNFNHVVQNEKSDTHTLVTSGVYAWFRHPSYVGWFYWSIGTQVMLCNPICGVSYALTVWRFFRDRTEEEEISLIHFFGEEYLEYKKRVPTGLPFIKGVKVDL
Description: Isoprenylcysteine carboxyl methyltransferase (Icmt) was provided by Prof PJ Casey of Duke University, NC. S-Adenosylmethionine (SAM), magnesium chloride Hexahydrate (MgCl2), tartrazine, 4-(2-hydroxyethyl)-1-piperazineethanesulfonic acid (HEPES), dimethyl sulfoxide (DMSO) and dithiotreitol (DTT) were purchased from Sigma (Mo, USA). [^3H] S-Adenosylmethionine, [^3H] Biotin and Streptavidin PVT SPA Beads were purchased from PerkinElmer (Waltham, Mass.). Assays were performed in black small volume 384 well microtitre plates from PerkinElmer.
Stocks of Icmt membrane protein (30 μg/μL) stored at −80° C. were thawed at 37° C. and placed on ice. The Icmt membrane protein was diluted in assay buffer (70 mM HEPES, 100 mM NaCl, 5 mM Mg Cl2 and 3 mM DTT, pH 7.5) to a 0.03 μg/μL working concentration and added to the wells of a microtitre plate (5 μl/well). To each wells 20 μl of the reaction buffer was added. The reaction was initiated with the addition of 5 μL of substrate solution containing BFC (6 μM), SAM (3 μM) and 30 μCi/mL [^3H] SAM (all of these reagents were stored at −20° C., SAM reagents thawed on ice, BFC thawed at RT). The plate was incubated at 37° C. for 30 minutes. The reaction was stopped with the addition of 15 μL of stop solution containing SAM (150 μM) and Streptavidin SPA beads (20 mg/mL). Following overnight incubation at ambient temperature radioactivity was counted on a Microbeta Trilux™ (Perkin Elmer, Turku, Finland).
Sf9 (Spodoptera frugiperda ovarian) membranes containing recombinant Icmt were provided by Prof PJ Casey (Duke University, NC and Duke-NUS Graduate Medical School). S-Adenosylmethionine (SAM), magnesium chloride hexahydrate, tartrazine, 4-(2-hydroxyethyl)-1-piperazineethanesulfonic acid (HEPES) and dithiotreitol (DTT) were purchased from Sigma (Mo, USA). [^3H] S-Adenosylmethionine, [^3H] biotin and streptavidin PVT SPA Beads were purchased from PerkinElmer (Waltham, Mass.). Biotinylated farnesylcysteine was synthesized as described in an earlier report. Assays were performed in black 384-well microtitre plates from PerkinElmer.
A vial of Icmt membrane protein (30 μg/μL) stored at −80° C. was thawed at 37° C. and placed on ice. The protein was diluted in assay buffer (70 mM HEPES, 100 mM NaCl, 5 mM MgCl2, 3 mM DTT, pH 7.5) to 0.03 μg/μL and aliquots were added to each well (5 μL/well), followed by 20 μL of the assay buffer. The reaction was initiated by adding 5 μL of a solution containing biotinylated BFC (6 μM), SAM (3 μM) and 30 μCi/mL [^3H] SAM. These reagents were stored at −20° C. and thawed on ice (SAM, [^3H] SAM) or at room temperature (BFC). The plate was incubated at 37° C. for 30 minutes after which the reaction was quenched by adding 15 μL of a solution comprising SAM (150 μM) and streptavidin SPA beads (20 mg/mL). After overnight incubation at ambient temperature, radioactivity was counted (Microbeta Trilux™, Perkin Elmer, Turku, Finland). The degree of inhibition was assessed from the radioactivity obtained in presence of test compound compared to that obtained from the control sample […]. Two independent determinations were made for each test compound.

[3] = tested on: PC3 Prostrate cancer cells; test: Antiproliferative activity / cell viability (MTS, 72 h); assay type: cell-based, human
Description: (§4) The relative number of the live cells was determined using the CellTiter® 96 AQueous One Solution Cell Proliferation Assay (Promega). Determinations were made in duplicates or triplicates.

[4] = tested on: MDA-MB-231 human breast cells; test: as above
Description: as §4
Human breast cancer MDA-MB231, liver cancer HepG2 and lung fibroblast cells were purchased from ATCC (Rockville, Md.). MDA-MB231 cells and IMR-90 cells were grown in DMEM (Sigma Aldrich, Singapore) and EMEM (Sigma Aldrich, Singapore) respectively at 37° C., 5% CO2. DMEM was supplemented with 10% fetal bovine serum (Invitrogen, heat treated at 65 deg C., 30 min), 50 units/L penicillin-G and 50 μg/mL streptomycin. EMEM was supplemented with 10% fetal bovine serum (heat treated as above), 100 mg/L penicillin-G and 100 μg/mL streptomycin.
Cell viability was assessed using CellTitre 96® Aqueous One Solution (Promega, Madison, Wis.) containing the tetrazolium salt 3-(4,5-dimethylthiazol-2-yl)-5-(3-carboxymethoxyphenyl)-2-(4-sulfophenyl)-2H-tetrazolium (MTS). […] Final concentration of DMSO per well was maintained at 0.5% v/v. […] Cell viability was determined from the expression:
The plot was constrained to ≧0 and ≦100%. At least 3 independent determinations of IC50 were made using two different stock solutions of test compound.

[5] = tested on: Human lung fibroblast IMR90 cells; test: Cell viability on non-malignant cells (MTS, 72 h); assay type: cell-based; conditions: IMR-90, further testing, 72 h, mean (SD), read-out: IC50 IMR90
Description: (§2) Cell viability was determined from the expression:
(§3) The plot was constrained to ≧0 and ≦100%.
Human lung fibroblast IMR90 cells were purchased from ATCC (Rockville, Md.) and grown in Eagle's Minimal Essential Media (EMEM, Sigma Aldrich, Singapore) at 37° C., 5% CO2. […] Seeding density was maintained at 4000 cells per well.

[6] = Aggregation tendency by dynamic light scattering (DLS); assay type: physicochemical; conditions: for DLS count rate (kcps): 1% DMSO, potassium phosphate buffer 5 mM pH 7.4
Description: Stock solutions (10 mM) of test compounds prepared in DMSO, diluted to 1 mM with DMSO and then serially diluted with potassium phosphate buffer (5 mM, pH 7.4, prefiltered before use) to give final concentrations of 1 μM and 10 μM. Final concentration of DMSO was 1% v/v. Measurements were carried out on the Malvern Instrument Zetasizer Nano ZS system equipped with a 4 mW He—Ne laser at 633 nm and detector angle of 90°. Three or more determinations of derived count rates (kilocounts per second, kcps) were obtained from each concentration of test compound, using two separately prepared stock solutions. Data collection was carried out using the software supplied with the instrument. Results are represented as mean±standard deviation. The positive control was benzyl benzoate (250 μM) which gave a count rate of 1180 kcps (±35). The vehicle (phosphate buffer, 1% DMSO) gave a reading of 14.9±0.4.

[7] = tested on: Human hepatocellular carcinoma HepG2 cells; test: Cell viability (MTS, 72 h); assay type: cell-based; conditions: HepG2, Table 6, mean (SD), read-out: IC50 (μM) HepG2
Description: as §2, §3
Human hepatocellular carcinoma HepG2 and human pancreatic cancer MIA PACA II cells were obtained from ATCC (Rockville, Md.). They were grown in DMEM (high glucose, Invitrogen) supplemented with 10% FBS, 50 μg/mL penicillin and 50 μg/mL streptomycin, 37° C., 5% CO2 until they reached 80-90% confluency, after which they were subcultured. Passage numbers were kept within 7-14 passages for both cell types.

[8] = pH 7.4, aqueous buffer, kinetic from dmso stock
[9] = Table 3, mean of two or more determinations (SD), read-out: IC50 Icmt
[10] = Homo sapiens, PC-3M, Table 3, 72 h, mean (SD), read-out: IC50 PC3
[11] = Homo sapiens, MDA-MB-231, 72 h, read-out: IC50MDA-MB-231 (μM)
[12] = Homo sapiens, Table 5, read-out: IC50 (μM) PC 3
[13] = Homo sapiens, MDA-MB-231, read-out: IC50 (μM) MDA-MB231

| SMILES | IC50 [2, 9] [µM] | IC50 [3, 10] [µM] | IC50 [4, 11] [µM] | further results |
| --- | --- | --- | --- | --- |
| CCCCCCCCn1cc(CN(CC)CC)c2cc(-c3cnc(N(C)C)nc3)ccc21 | – | – | – | solubility at 24 h ([1]; 25 °C, pH 7.4, aqueous buffer, kinetic from dmso stock): 24.9 µM (≈ 10.8 µg/mL); solubility at 3 h [1, 8]: 25.3 µM (≈ 11 µg/mL) |
| CCCCCCCCn1cc(CN(CC)CC)c2cc(-c3ccccc3F)ccc21 [Compound 8-2] | 2.56 | – | – | – |
| CCCCCCCCn1cc(CN(CC)CC)c2cc(-c3cccc(F)c3)ccc21 [Compound 8-3] | 1.61 | – | – | – |
| CCCCCCCCn1cc(CN(CC)CC)c2cc(-c3ccccc3C(F)(F)F)ccc21 [Compound 8-4] | 1.28 | 9.66 | 6.69 | – |
| CCCCCCCCn1cc(CN(CC)CC)c2cc(-c3cccc(C(F)(F)F)c3)ccc21 [Compound 8-5] | 2.61 | – | – | – |
| CCCCCCCCn1cc(CN(CC)CC)c2cc(-c3cccnc3)ccc21 [Compound 8-7, Diethyl-(1-octyl-5-pyridin-3-yl-1H-indol-3ylmethyl)-amine] | 1.75 | 5.84 | 5.5 | IC50 [2]: 1.8 µM; IC50 [5]: 5.52 µM; Aqueous Solubility (pH 7.4) 24 hours ([1]; 24 h, pH 7.4): 244.8 (9.7) μM; Solubility (μM) ([1]; 24 h, pH 7.4): 244.8 (9.7) μM; solubility at 3 h [1, 8]: 250 µM (≈ 97.8 µg/mL); DLS count rate (kcps) ([6]; 1 μM): 16.8 kcps; DLS count rate (kcps) ([6]; 10 μM): 16.5 kcps; IC50 ([4]; Homo sapiens, MDA-MB-231, 72 h, read-out: IC50 MDA-MB-231 (μM)): 6.01 µM |
| CCCCCCCCn1cc(CN(CC)CC)c2cc(-c3cnccc3F)ccc21 [Compound 8-8, Diethyl-[5(4-Fluoro-pyrdin-3yl)-1-octyl-1H-indol-3ylmethyl]-amine] | 0.96 | – | – | IC50 ([3]; Table 3, 72 h, mean (SD), read-out: IC50 PC3): 5.88 µM; IC50 ([4]; read-out: IC50MDA-MB-231, Table 3, 72 h, mean (SD)): 5.14 µM |
| CCCCCCCCn1cc(CN(CC)CC)c2cc(-c3cnc(C#N)nc3)ccc21 [Compound 8-19, 5-(3-Diethylaminomethyl-1-octyl-1H-indol-5-yl)-pyrimidine-2-carbonitrile] | 2.26 | 5.92 | 3.95 | – |
| CCCCCCCCn1cc(CN(CC)CC)c2cc(-c3ccc(C#N)cc3)ccc21 [Compound 8-20, 4-(3-Diethylaminomethyl-1-octyl-1H-indol-5-yl)-benzonitrile] | 2.45 | 6.19 | 7.72 | – |
| CCCCCCCCn1cc(CN(CC)CC)c2cc(-c3cccc(O)c3)ccc21 [Compound 8-21, 3-(3-Diethylaminomethyl-1-octyl-1H-indol-5-yl)-phenol] | 5.43 | 17.4 | 14.8 | – |
| CCCCCCCCn1cc(CN(CC)CC)c2cc(-c3ccc(S(=O)(=O)NC)cc3)ccc21 [Compound 8-24, 4-(3-Diethylaminomethyl-1-octyl-1H-indol-5-yl)-N-methyl-benzensulfonamide] | 1.71 | – | 8.52 | IC50 [7]: 4.76 µM; IC50 ([4]; Homo sapiens, MDA-MB-231, read-out: IC50 (μM) MDA MB 231): 8.7 µM |
| CCCCCCCCn1c2c(c3cc(-c4cccc(C)c4)ccc31)CN(C)CC2 [Compound 235, 2-methyl-8-m-tolyl-5-n-octyl-1,2,3,4-tetrahydropyrido[4,3-b]indoles] | 10.3 | 7.58 | 9.18 | times less potent as an Icmt inhibitor than 8-1 ([2]; ratio of IC50 Icmt): ~5 |
| CCCCCCCCn1c2c(c3cc(-c4cccc(C)c4)ccc31)CN(C(C)C)CC2 [Compound 260, 2-isopropyl-8-m-tolyl-5-n-octyl-1,2,3,4-tetrahydropyrido[4,3-b]indoles] | 8.3 | 9.69 | 7.38 | IC50 [3, 12]: 9.69 ± 1.84 µM; IC50 [4, 13]: 7.38 ± 0.48 µM |
| O=C(OCc1ccccc1)c1ccccc1 [benzyl benzoate, reference compound] | – | – | – | DLS count rate ([6]; positive control, 250 μM): 1180 kcps |
| CCCCCCCCn1cc(CC(N)=O)c2cc(-c3ccnc(F)c3)ccc21 [cpd 513] | – | – | – | IC50 [3, 12]: 25.6 ± 3.48 µM; IC50 [4, 13]: 26.1 ± 0.41 µM |
